Experimental findings from patent publication US12139492B2 (Endotarget Inc., priority 2021, dated 2024) are described below.

For one test, the system named is Mino cells. Kind of test: Antiproliferative effect, MTS cell viability assay, Mino cells. Type of test: cell-based. The following applies: Mino mantle cell lymphoma cells, read-out: IC50 (anti-proliferation) Mino cells. The essentials: (§1)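 Tested at six concentrations (0 to 10 μM in tenfold steps), 72 h; viability by MTS, A490.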
Another test deals with JeKo-1 cells. Kind of test: Antiproliferative effect, MTS cell viability assay, JeKo-1 cells. The following applies: JeKo-1 mantle cell lymphoma cells, read-out: IC50 (anti-proliferation) JeKO-1 cells. It is filed as cell-based. A digest of the protocol: as §1
In another test the target is BTK (Homo sapiens, UniProt Q06187). Kind of test: Degradation of BTK protein in Namalwa cells (Western blot; DC50, Dmax). The following applies: for DC50: read-out: DC50 (BTK degradation), concentration giving 50% reduction of BTK expression level, cell line not given; for Dmax: read-out: Dmax (BTK degradation); for degradation of BTK protein: Namalwa B lymphocyte cells, various concentrations, 24 hours, Western blot.
Sequence of BTK (Q06187 whole entry): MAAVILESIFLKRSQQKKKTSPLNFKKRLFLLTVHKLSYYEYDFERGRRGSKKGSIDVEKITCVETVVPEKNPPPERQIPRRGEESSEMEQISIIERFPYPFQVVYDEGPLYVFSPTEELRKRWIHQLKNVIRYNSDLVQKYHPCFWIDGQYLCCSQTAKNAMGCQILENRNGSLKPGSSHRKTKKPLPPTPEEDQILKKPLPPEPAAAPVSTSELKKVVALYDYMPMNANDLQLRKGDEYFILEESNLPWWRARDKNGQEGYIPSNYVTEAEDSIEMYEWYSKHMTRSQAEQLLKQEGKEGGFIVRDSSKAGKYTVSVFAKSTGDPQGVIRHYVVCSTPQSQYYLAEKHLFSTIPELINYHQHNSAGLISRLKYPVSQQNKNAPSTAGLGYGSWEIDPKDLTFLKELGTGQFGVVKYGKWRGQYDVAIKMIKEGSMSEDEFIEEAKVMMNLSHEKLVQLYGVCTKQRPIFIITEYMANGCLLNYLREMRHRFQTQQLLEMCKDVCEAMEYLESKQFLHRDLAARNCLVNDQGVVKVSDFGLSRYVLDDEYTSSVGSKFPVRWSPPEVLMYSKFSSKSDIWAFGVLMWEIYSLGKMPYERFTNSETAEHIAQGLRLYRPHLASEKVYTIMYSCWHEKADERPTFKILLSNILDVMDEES

Each structure is given as a SMILES string. Read-outs that look alike come from different tables or passages of the source.

Turning to `NC(=O)c1c(-c2ccc(Oc3ccccc3)cc2)nn2c1NCC[C@H]2C1CCN(CC2CCN(C(=O)N3CCN(CC4CCN(c5ccc6c(c5)CN(C5CCC(=O)NC5=O)C6=O)CC4)CC3)CC2)CC1` (stereo partly drawn) [Compound 412, (7S)-7-(1-((1-(4-((1-(2-(2,6-dioxopiperidin-3-yl)-1-oxoisoindolin-5-yl)piperidin-4-yl)methyl)piperazine-1-carbonyl)piperidin-4-yl)methyl)piperidin-4-yl)-2-(4-phenoxyphenyl)-4,5,6,7-tetrahydropyrazolo[1,5-a]pyrimidine-3-carboxamide], the IC50 with Mino cells (Homo sapiens, MINO) lay within 1 to 10 µM. Besides, in the test with JeKo-1 cells (Homo sapiens), the IC50 was less than 1 µM. Further, at BTK, the DC50 fell in the range of 0.01 to 0.05 µM and the Dmax was more than 90%.

As for `NC(=O)c1c(-c2ccc(Oc3ccccc3)cc2)nn2c1NCC[C@H]2C1CCN(CC2CCN(C(=O)N3CCC(CC4CCN(c5ccc6c(c5)CN(C5CCC(=O)NC5=O)C6=O)CC4)CC3)CC2)CC1` (stereo partly drawn) [Compound 414, (7S)-7-(1-((1-(4-((1-(2-(2,6-dioxopiperidin-3-yl)-1-oxoisoindolin-5-yl)piperidin-4-yl)methyl)piperidine-1-carbonyl)piperidin-4-yl)methyl)piperidin-4-yl)-2-(4-phenoxyphenyl)-4,5,6,7-tetrahydropyrazolo[1,5-a]pyrimidine-3-carboxamide], the IC50 in the test with Mino cells (Homo sapiens, MINO) is less than 1 µM. Besides, the IC50 in the test on JeKo-1 cells (Homo sapiens) was less than 1 µM. At BTK, the DC50 was less than 0.01 µM and the maximal degradation (Dmax) was more than 90%.

With `NC(=O)c1c(-c2ccc(Oc3ccccc3)cc2)nn2c1NCC[C@H]2C1CCN(CC2CCN(C(=O)N3CCC(CN4CCC(c5ccc6c(c5)C(=O)N(C5CCC(=O)NC5=O)C6=O)CC4)CC3)CC2)CC1` (stereo partly drawn) [Compound 415, (7S)-7-(1-((1-(4-((4-(2-(2,6-dioxopiperidin-3-yl)-1,3-dioxoisoindolin-5-yl)piperidin-1-yl)methyl)piperidine-1-carbonyl)piperidin-4-yl)methyl)piperidin-4-yl)-2-(4-phenoxyphenyl)-4,5,6,7-tetrahydropyrazolo[1,5-a]pyrimidine-3-carboxamide], the IC50 in the test with Mino cells (Homo sapiens, MINO) is less than 1 µM. In the test on JeKo-1 cells (Homo sapiens), the IC50 was in the range of 1 to 10 µM. Also, on BTK, the DC50 is 0.01 to 0.05 µM and the greatest degradation seen (Dmax) is more than 75%.

For `NC(=O)c1c(-c2ccc(Oc3ccccc3)cc2)nn2c1NCC[C@H]2C1CCN(CC2CCN(C(=O)N3CCC(CN4CCC(c5ccc6c(c5)CN(C5CCC(=O)NC5=O)C6=O)CC4)CC3)CC2)CC1` (stereo partly drawn) [Compound 416, (7S)-7-(1-((1-(4-((4-(2-(2,6-dioxopiperidin-3-yl)-1-oxoisoindolin-5-yl)piperidin-1-yl)methyl)piperidine-1-carbonyl)piperidin-4-yl)methyl)piperidin-4-yl)-2-(4-phenoxyphenyl)-4,5,6,7-tetrahydropyrazolo[1,5-a]pyrimidine-3-carboxamide], the IC50 with Mino cells (Homo sapiens, MINO) fell in the range of 1 to 10 µM; in the test with JeKo-1 cells (Homo sapiens), 1 to 10 µM. For the same molecule, the half-maximal degradation concentration (DC50) on BTK was 0.01 to 0.05 µM. Besides, the Dmax at BTK is more than 75%.

For the molecule `Nc1ncnc2c1c(-c1ccc(Oc3ccccc3)cc1)nn2C1CCN(CCOCCOCCN2CC=C(c3ccc4c(c3)CN(C3CCC(=O)NC3=O)C4=O)CC2)CC1` (centres unmarked) [Compound 417, 3-(5-(1-(2-(2-(2-(4-(4-amino-3-(4-phenoxyphenyl)-1H-pyrazolo[3,4-d]pyrimidin-1-yl)piperidin-1-yl)ethoxy)ethoxy)ethyl)-1,2,3,6-tetrahydropyridin-4-yl)-1-oxoisoindolin-2-yl)piperidine-2,6-dione], in the test with Mino cells (Homo sapiens, MINO), the IC50 fell in the range of 1 to 10 µM. Also, the IC50 in the test on JeKo-1 cells (Homo sapiens) is 1 to 10 µM. For the same molecule, on BTK, the “degradation of BTK protein” value is reported as “dose-dependent degradation”, the DC50 is 0.01 to 0.05 µM and the Dmax is more than 75%.

As to `Nc1ncnc2c1c(-c1ccc(Oc3ccccc3)cc1)nn2C1CCN(CCOCCOCCN2CCC(c3ccc4c(c3)C(=O)N(C3CCC(=O)NC3=O)C4=O)CC2)CC1` (centres unmarked) [Compound 418, 5-(1-(2-(2-(2-(4-(4-amino-3-(4-phenoxyphenyl)-1H-pyrazolo[3,4-d]pyrimidin-1-yl)piperidin-1-yl)ethoxy)ethoxy)ethyl)piperidin-4-yl)-2-(2,6-dioxopiperidin-3-yl)isoindoline-1,3-dione], in the test with Mino cells, the IC50 was 1 to 10 µM. Also, the IC50 in the test with JeKo-1 cells lay in the range of 1 to 10 µM. At BTK, the “degradation of BTK protein” value was “dose-dependent degradation”, the 50% degradation concentration (DC50) was less than 0.01 µM and the maximal degradation (Dmax) is more than 90%.

In the case of `Nc1ncnc2c1c(-c1ccc(Oc3ccccc3)cc1)nn2C1CCN(CC2CCN(/C=C\C(=O)CN3CCN(c4ccc5c(c4)CN(C4CCC(=O)NC4=O)C5=O)CC3)CC2)CC1` (centres unmarked) [Compound 421, (Z)-3-(5-(4-(4-(4-((4-(4-amino-3-(4-phenoxyphenyl)-1H-pyrazolo[3,4-d]pyrimidin-1-yl)piperidin-1-yl)methyl)piperidin-1-yl)-2-oxobut-3-en-1-yl)piperazin-1-yl)-1-oxoisoindolin-2-yl)piperidine-2,6-dione], in the test on Mino cells (Homo sapiens, MINO), the IC50 is 1 to 10 µM. For the same molecule, the IC50 with JeKo-1 cells (Homo sapiens) lay within 1 to 10 µM. At BTK, the “degradation of BTK protein” value was “dose-dependent degradation”, the DC50 is less than 0.01 µM and the Dmax was more than 90%.

As for `Nc1ncnc2c1c(-c1ccc(Oc3ccccc3)cc1)nn2C1CCN(CC2CCN(CCCC(=O)N3CCC(c4ccc5c(c4)CN(C4CCC(=O)NC4=O)C5=O)CC3)CC2)CC1` (centres unmarked) [Compound 422, 3-(5-(1-(4-(4-((4-(4-amino-3-(4-phenoxyphenyl)-1H-pyrazolo(3,4-d)pyrimidin-1-yl)piperidin-1-yl)methyl)piperidin-1-yl)butanoyl)piperidin-4-yl)-1-oxoisoindolin-2-yl)piperidine-2,6-dione], the IC50 with Mino cells (Homo sapiens, MINO) is less than 1 µM. Also, the IC50 in the test with JeKo-1 cells (Homo sapiens) is less than 1 µM. For the same molecule, at BTK, the DC50 was less than 0.01 µM and the Dmax was more than 90%.

In the case of `Nc1ncnc2c1c(-c1ccc(Oc3ccccc3)cc1)nn2C1CCN(CC2CCN(CC3CN(c4ccc5c(c4)C(=O)N(C4CCC(=O)NC4=O)C5=O)C3)C2)CC1` (centres unmarked) [Compound 423, 5-(3-((3-((4-(4-amino-3-(4-phenoxyphenyl)-1H-pyrazolo(3,4-d)pyrimidin-1-yl)piperidin-1-yl)methyl)pyrrolidin-1-yl)methyl)azetidin-1-yl)-2-(2,6-dioxopiperidin-3-yl)isoindoline-1,3-dione], the IC50 with Mino cells (Homo sapiens, MINO) was less than 1 µM. For the same molecule, the IC50 in the test with JeKo-1 cells (Homo sapiens) is 1 to 10 µM. For the same molecule, at BTK, the “degradation of BTK protein” value is “dose-dependent degradation”, the DC50 fell in the range of 0.01 to 0.05 µM and the Dmax was more than 90%.

For the molecule `Nc1ncnc2c1c(-c1ccc(Oc3ccccc3)cc1)nn2C1CCN(C[C@H]2CCN(CC3CN(c4ccc5c(c4)C(=O)N(C4CCC(=O)NC4=O)C5=O)C3)C2)CC1` (stereo partly drawn) [Compound 423a, 5-(3-(((R)-3-((4-(4-amino-3-(4-phenoxyphenyl)-1H-pyrazolo[3,4-d]pyrimidin-1-yl)piperidin-1-yl)methyl)pyrrolidin-1-yl)methyl)azetidin-1-yl)-2-(2,6-dioxopiperidin-3-yl)isoindoline-1,3-dione], in the test on Mino cells (Homo sapiens, MINO), the IC50 is less than 1 µM. The IC50 in the test with JeKo-1 cells (Homo sapiens) was 1 to 10 µM. Moreover, on BTK, the DC50 lay within 0.01 to 0.05 µM and the Dmax is more than 90%.

Regarding `Nc1ncnc2c1c(-c1ccc(Oc3ccccc3)cc1)nn2C1CCN(C[C@@H]2CCN(CC3CN(c4ccc5c(c4)C(=O)N(C4CCC(=O)NC4=O)C5=O)C3)C2)CC1` (stereo partly drawn) [Compound 423b, 5-(3-(((S)-3-((4-(4-amino-3-(4-phenoxyphenyl)-1H-pyrazolo[3,4-d]pyrimidin-1-yl)piperidin-1-yl)methyl)pyrrolidin-1-yl)methyl)azetidin-1-yl)-2-(2,6-dioxopiperidin-3-yl)isoindoline-1,3-dione], the IC50 in the test with Mino cells (Homo sapiens, MINO) is less than 1 µM. For the same molecule, in the test on JeKo-1 cells (Homo sapiens), the IC50 was 1 to 10 µM. Moreover, at BTK, the DC50 was 0.01 to 0.05 µM and the Dmax was more than 90%.

Regarding `Nc1ncnc2c1c(-c1ccc(Oc3ccccc3)cc1)nn2C1CCN(CC2CCN(CC3CN(c4ccc5c(c4)CN(C4CCC(=O)NC4=O)C5=O)C3)C2)CC1` (centres unmarked) [Compound 424, 3-(5-(3-((3-((4-(4-amino-3-(4-phenoxyphenyl)-1H-pyrazolo[3,4-d]pyrimidin-1-yl)piperidin-1-yl)methyl)pyrrolidin-1-yl)methyl)azetidin-1-yl)-1-oxoisoindolin-2-yl)piperidine-2,6-dione], the IC50 is less than 1 µM in the test on Mino cells (Homo sapiens, MINO) and less than 1 µM with JeKo-1 cells (Homo sapiens). The DC50 on BTK lay within 0.01 to 0.05 µM. Besides, the Dmax at BTK was more than 90%.

Take `Nc1ncnc2c1c(-c1ccc(Oc3ccccc3)cc1)nn2C1CCN([C@@H]2CCN(CC3CN(c4ccc5c(c4)C(=O)N(C4CCC(=O)NC4=O)C5=O)C3)C2)CC1` (stereo partly drawn) [Compound 425a, 5-(3-(((R)-3-(4-(4-amino-3-(4-phenoxyphenyl)-1H-pyrazolo[3,4-d]pyrimidin-1-yl)piperidin-1-yl)pyrrolidin-1-yl)methyl)azetidin-1-yl)-2-(2,6-dioxopiperidin-3-yl)isoindoline-1,3-dione]: in the test with Mino cells (Homo sapiens, MINO), the IC50 lay in the range of 1 to 10 µM. For the same molecule, the IC50 in the test with JeKo-1 cells (Homo sapiens) fell in the range of 1 to 10 µM. In addition, at BTK, the DC50 was in the range of 0.01 to 0.05 µM and the Dmax is more than 90%.

Regarding `Nc1ncnc2c1c(-c1ccc(Oc3ccccc3)cc1)nn2C1CCN([C@H]2CCN(CC3CN(c4ccc5c(c4)C(=O)N(C4CCC(=O)NC4=O)C5=O)C3)C2)CC1` (stereo partly drawn) [Compound 425b, 5-(3-(((S)-3-(4-(4-amino-3-(4-phenoxyphenyl)-1H-pyrazolo[3,4-d]pyrimidin-1-yl)piperidin-1-yl)pyrrolidin-1-yl)methyl)azetidin-1-yl)-2-(2,6-dioxopiperidin-3-yl)isoindoline-1,3-dione], the IC50 in the test with Mino cells (Homo sapiens, MINO) fell in the range of 1 to 10 µM; in the test with JeKo-1 cells (Homo sapiens), 1 to 10 µM. For the same molecule, the Dmax on BTK was more than 90%.
